Data as given in patent US5185366A, “Method for treatment and prevention of diseases caused by enveloped viruses, including herpes simplex virus types 1 and 2 diseases, using 3,4-dihydroxy-2H-benzopyran-2H-one” (Ohio State University Research Foundation, priority 1990, dated 1993).
Read-outs that look alike come from different tables or passages of the source.

What was measured:
HSV-2 [1] = assay: Extracellular activity, inhibition of plaque forming units, HSV-2; conditions: for extracellular antiviral activity: HSV-2, 10 μM; for Plaque Forming Units Mean ± SD: extracellular
HSV-1 [2] = assay: Extracellular activity, inhibition of plaque forming units, HSV-1; conditions: for extracellular antiviral activity: HSV-1, 10 μM; for Plaque Forming Units Mean ± SD: extracellular
HSV-2 [3] = assay: HSV-2 plaque size, extracellular treatment; type: cell-based, Herpes simplex virus type 2; conditions: for Mean plaque diameter (±SD), Treated: extracellularly; for reduction in plaque size: virus treated extracellularly
VSV [4] = assay: microbe, parasite or virus in culture; type: cell-based, Vesicular stomatitis virus
[5] = test system: Buffalo green monkey kidney (BGM 70) cells; assay: [3H]-thymidine uptake cytotoxicity; type: cell-based; conditions: for inhibition at 0.4 µM / inhibition at 1.6 µM / inhibition at 2.5 µM / inhibition at 10 µM: Chlorocebus sabaeus, read-out: % Inhibition of [3H]-Thymidine Incorporated; for inhibition at 0.4 µM: 0.4 μmol/L; for inhibition at 1.6 µM: 1.6 μmol/L; for inhibition at 2.5 µM: 2.5 μmol/L; for inhibition at 10 µM: 10.0 μmol/L; for toxicity ([3H]-thymidine uptake and/or cell growth): at 10 μM
Poliovirus-2 [6] = assay: organism not typed; type: cell-based
HSV-2 [7] = assay: HSV-2 plaque size, intracellular treatment; type: cell-based, Herpes simplex virus type 2
Description: For antiviral studies the diameter of plaques is determined with the aid of a calibrated micrometer slide and a microscope eye piece having scaled markings. A simple random sample is taken and all plaque diameters are measured for both experimental and control groups. Plaque diameter also serves as an indication of inhibition of viral replication. […] Monolayers are then infected, washed with EBSS and | maintenance medium with or without compound added. Cells are stained afte | 48 hours with crystal violet and the plaque diameters are determined with | the aid of a micrometer.

HSV-2 [8] = assay: Intracellular activity, inhibition of plaque forming units, HSV-2; type: cell-based, Herpes simplex virus type 2; conditions: for intracellular antiviral activity: HSV-2, 10 μM; for Plaque Forming Units Mean ± SD: intracellular
HSV-1 [9] = assay: Intracellular activity, inhibition of plaque forming units, HSV-1; type: cell-based, Herpes simplex virus type 1; conditions: for intracellular antiviral activity: HSV-1, 10 μM; for Plaque Forming Units Mean ± SD: intracellular
Poliovirus-2 [10] = assay: organism not typed; type: cell-based; remark: listed apart in the source
HSV = assay: Selectivity among the viruses tested; type: cell-based, Herpes simplex virus
[11] = Inhibition of cell growth (microscopic cell count); type: cell-based, Buffalo green monkey; conditions: monkey, bgm-70 cells, read-out: % Reduction of cell growth
Description: a MASHII cell harvester and placed in a scintillation counter to determin
incorporation of labelled compound and level of toxicity. BGM 70 cells ar
seeded at a concentration of […] per well in a 24well tissue cultur
plate. Cells are planted in 2 mL of growth medium with or without the tes
compound and are incubated at 37° C. for 38 hours. At 24 hours
medium is removed from onehalf of the plates and the cells are fixed and
stained with crystal violet. The remaining cultures are fixed and stained
^b BGM 70 cells are counted microscopically and comparisons are made.
Experiments are performed blindly by assigning each compound concentratio
a letter code. The code is broken after the cells are counted.
The effect of the compounds on the inhibition of cell growth is determined using BGM-70 cells grown in vitro. For this assay, BGM 70 cells are seeded at a concentration of approximately 70 cells per well in 24-well tissue culture plates. Cells are planted in 2 ml of growth medium with or without the test compound and are incubated at 37° C. for 48 hours. At 24 hours, cells from one half of the plates are fixed and stained with crystal violet. The remaining cultures are fixed and stained at 48 hours. Cells are counted microscopically and comparisons are made between non-treated (control) and treated cells.

VSV [12] = assay: microbe, parasite or virus in culture; type: cell-based, Vesicular stomatitis virus; remark: listed apart in the source
[13] = listed as 3,4-dihydroxy-2H-1-benzopyran-2-one

## O=c1oc2ccccc2c(O)c1O [Compound 5, 3,4-dihydroxy-2H-1-benzopyran-2-one]
HSV-2 [1]
  extracellular antiviral activity: shows both intra- and extra- cellular antiviral activity
HSV-2 [1]; [13]
  extracellular antiviral activity: exhibits both intracellular and extracellular activity
HSV-2 [1]; Human alphaherpesvirus 2, extracellular, HSV-2 + 1 × Cmpd (10 μM), relative viral conc 10
  inhibition at 10 µM: 64%
HSV-2 [1]; Human alphaherpesvirus 2, extracellular, HSV-2 + 1 × Cmpd (10 μM), relative viral conc 100
  inhibition at 10 µM: 77%
HSV-2 [1]; Human alphaherpesvirus 2, extracellular, HSV-2 + 2 × Cmpd (20 μM), relative viral conc 10
  inhibition at 20 µM: 96%
HSV-2 [1]; Human alphaherpesvirus 2, extracellular, HSV-2 + 2 × Cmpd (20 μM), relative viral conc 100
  inhibition at 20 µM: 95%
HSV-2 [1]; Human alphaherpesvirus 2, read-out: % Inhibition of PFU, EA (extracellular activity), HSV-2, 10.0 μmol/L
  inhibition at 10 µM: 81%
HSV-2 [1]; Human alphaherpesvirus 2, read-out: % Inhibition of Plaque Forming Units, Extracellularly, HSV-2, 10 μM (Table IV)
  inhibition at 10 µM: 81 ± 4%
HSV-2 [1]; Human alphaherpesvirus 2, read-out: reduction (PFU), extracellularly, HSV-2, 10 μM level, P<0.01
  inhibition at 10 µM: 76 to 98%
HSV-2 [1]; comparison with clofibric acid, P<0.01
  inhibition, extracellular treatment of HSV-2: 63+/-4%
HSV-2 [1]; HSV-2 + 1 × Cmpd (10 μM), relative viral conc 10
  Plaque Forming Units Mean ± SD: 5.3 ± 1.5
HSV-2 [1]; HSV-2 + 1 × Cmpd (10 μM), relative viral conc 100
  Plaque Forming Units Mean ± SD: 49.3 ± 4.5
HSV-2 [1]; HSV-2 + 2 × Cmpd (20 μM), relative viral conc 10
  Plaque Forming Units Mean ± SD: 0.6 ± 0.6
HSV-2 [1]; HSV-2 + 2 × Cmpd (20 μM), relative viral conc 100
  Plaque Forming Units Mean ± SD: 9.7 ± 1.5
HSV-1 [2]
  extracellular antiviral activity: shows both intra- and extra- cellular antiviral activity
HSV-1 [2]; [13]
  extracellular antiviral activity: exhibits both intracellular and extracellular activity
HSV-1 [2]; Human alphaherpesvirus 1, extracellular, HSV-1 + 1 × Cmpd (10 μM), relative viral conc 10
  inhibition at 10 µM: 82%
HSV-1 [2]; Human alphaherpesvirus 1, extracellular, HSV-1 + 1 × Cmpd (10 μM), relative viral conc 100
  inhibition at 10 µM: 76%
HSV-1 [2]; Human alphaherpesvirus 1, extracellular, HSV-1 + 2 × Cmpd (20 μM), relative viral conc 10
  inhibition at 20 µM: 98%
HSV-1 [2]; Human alphaherpesvirus 1, extracellular, HSV-1 + 2 × Cmpd (20 μM), relative viral conc 100
  inhibition at 20 µM: 95%
HSV-1 [2]; Human alphaherpesvirus 1, read-out: % Inhibition of Plaque Forming Units, Extracellularly, HSV-1, 10 μM
  inhibition at 10 µM: 76.4 ± 2.2%
HSV-1 [2]; Human alphaherpesvirus 1, read-out: reduction (PFU), extracellularly, HSV-1, 10 μM level, P<0.01
  inhibition at 10 µM: 76 to 98%
HSV-1 [2]; HSV-1 + 1 × Cmpd (10 μM), relative viral conc 10
  Plaque Forming Units Mean ± SD: 2.6 ± 1.6
HSV-1 [2]; HSV-1 + 1 × Cmpd (10 μM), relative viral conc 100
  Plaque Forming Units Mean ± SD: 40.6 ± 3.8
HSV-1 [2]; HSV-1 + 2 × Cmpd (20 μM), relative viral conc 10
  Plaque Forming Units Mean ± SD: 0.3 ± 0.5
HSV-1 [2]; HSV-1 + 2 × Cmpd (20 μM), relative viral conc 100
  Plaque Forming Units Mean ± SD: 9.3 ± 1.5
HSV-2 [3]; Human alphaherpesvirus 2, extracellularly, 10 μM, relative viral conc 1, read-out: % Inhib (mean plaque diameter)
  inhibition at 10 µM: 6%
HSV-2 [3]; Human alphaherpesvirus 2, extracellularly, 10 μM, relative viral conc 10, read-out: % Inhib (mean plaque diameter)
  inhibition at 10 µM: 1%
HSV-2 [3]; Human alphaherpesvirus 2, extracellularly, 20 μM, relative viral conc 10, read-out: % Inhib (mean plaque diameter)
  inhibition at 20 µM: 1%
HSV-2 [3]; 10 μM, relative viral conc 1
  Mean plaque diameter (±SD), Treated: 449 ± 70 micrometers
HSV-2 [3]; 10 μM, relative viral conc 10
  Mean plaque diameter (±SD), Treated: 500 ± 100 micrometers
HSV-2 [3]; 20 μM, relative viral conc 10
  Mean plaque diameter (±SD), Treated: 486 ± 80 micrometers
HSV-2 [3]; 10 μM
  reduction in plaque size: no significant reduction
HSV-2 [3]; 10 μM, listed as 3,4-dihydroxy-2H-1-benzopyran-2-one
  reduction in plaque size: no reduction in plaque size
VSV [4]; VSV, n=2
  extracellular antiviral activity: no antiviral activity
VSV [4]; Vesicular stomatitis virus, read-out: % Inhibition of Plaque Forming Units, Extracellularly
  inhibition at 10 µM: 0%
[5]; 24 h
  inhibition at 0.4 µM: 0%
  inhibition at 1.6 µM: 0%
  inhibition at 2.5 µM: 0%
  inhibition at 10 µM: 28.4 ± 7.6%
[5]; 48 h
  inhibition at 0.4 µM: 0%
  inhibition at 1.6 µM: 0%
  inhibition at 2.5 µM: 0%
  inhibition at 10 µM: 26.3 ± 6.3%
[5]; 72 h
  inhibition at 0.4 µM: 0%
  inhibition at 1.6 µM: 0%
  inhibition at 2.5 µM: 0%
  inhibition at 10 µM: 0%
[5]
  toxicity ([3H]-thymidine uptake and/or cell growth): no toxicity
[5]; [13]
  toxicity ([3H]-thymidine uptake and/or cell growth): non-toxic
Poliovirus-2 [6]; poliovirus-2, n=2
  extracellular antiviral activity: no antiviral activity
Poliovirus-2 [6]; read-out: % Inhibition of Plaque Forming Units, Extracellularly
  inhibition at 10 µM: 2.7%
HSV-2 [7]; Human alphaherpesvirus 2, 48 h, viral-infected cells, 10 μM, read-out: reduction in plaque size
  inhibition at 10 µM: 56%
HSV-2 [7]; Human alphaherpesvirus 2, intracellularly, 10 μM, relative viral conc 10, read-out: % Inhib (mean plaque diameter)
  inhibition at 10 µM: 56%
HSV-2 [7]; Human alphaherpesvirus 2, intracellularly, 20 μM, relative viral conc 10, read-out: % Inhib (mean plaque diameter)
  inhibition at 20 µM: 60%
HSV-2 [7]; intracellularly, 10 μM, relative viral conc 1
  Mean plaque diameter (±SD), Treated: 213 ± 79 micrometers
HSV-2 [7]; intracellularly, 10 μM, relative viral conc 10
  Mean plaque diameter (±SD), Treated: 221 ± 89 micrometers
HSV-2 [7]; intracellularly, 20 μM, relative viral conc 1
  Mean plaque diameter (±SD), Treated: 205 ± 90 micrometers
HSV-2 [7]; intracellularly, 20 μM, relative viral conc 10
  Mean plaque diameter (±SD), Treated: 202 ± 88 micrometers
HSV-2 [8]
  intracellular antiviral activity: shows both intra- and extra- cellular antiviral activity
HSV-2 [8]; [13]
  intracellular antiviral activity: exhibits both intracellular and extracellular activity
HSV-2 [8]; Human alphaherpesvirus 2, 10 μM, one experiment, n=3 wells, P<0.07, read-out: inhibition (PFU), virus-infected cells
  inhibition at 10 µM: 26 ± 4%
HSV-2 [8]; Human alphaherpesvirus 2, HSV-2, 10 μM (Table IV), read-out: % Inhibition of Plaque Forming Units, Intracellularly
  inhibition at 10 µM: 36 ± 4.7%
HSV-2 [8]; Human alphaherpesvirus 2, HSV-2, 10 μM, P<0.01, read-out: inhibition (PFU), intracellularly
  inhibition at 10 µM: 25 to 39%
HSV-2 [8]; Human alphaherpesvirus 2, HSV-2, 10.0 μmol/L, read-out: % Inhibition of PFU, IA (intracellular activity)
  inhibition at 10 µM: 36%
HSV-2 [8]; Human alphaherpesvirus 2, intracellular, HSV-2: 1 × Cmpd (10 μM), relative viral conc 10, read-out: % Inhibition
  inhibition at 10 µM: 33%
HSV-2 [8]; Human alphaherpesvirus 2, intracellular, HSV-2: 1 × Cmpd (10 μM), relative viral conc 100, read-out: % Inhibition
  inhibition at 10 µM: 39%
HSV-2 [8]; at noncytotoxic concentrations
  anti-HSV-2 properties: exhibited anti-HSV-2 properties at noncytotoxic concentrations
HSV-2 [8]; HSV-2: 1 × Cmpd (10 μM), relative viral conc 10
  Plaque Forming Units Mean ± SD: 14.3 ± 1.1
HSV-2 [8]; HSV-2: 1 × Cmpd (10 μM), relative viral conc 100
  Plaque Forming Units Mean ± SD: 153.6 ± 7.4
HSV-1 [9]
  intracellular antiviral activity: shows both intra- and extra- cellular antiviral activity
HSV-1 [9]; [13]
  intracellular antiviral activity: exhibits both intracellular and extracellular activity
HSV-1 [9]; Human alphaherpesvirus 1, HSV-1, 10 μM, P<0.01, read-out: inhibition (PFU), intracellularly
  inhibition at 10 µM: 25 to 39%
HSV-1 [9]; Human alphaherpesvirus 1, HSV-1, 10 μM, read-out: % Inhibition of Plaque Forming Units, Intracellularly
  inhibition at 10 µM: 38.4 ± 5.7%
HSV-1 [9]; Human alphaherpesvirus 1, intracellular, HSV-1: 1 × Cmpd (10 μM), relative viral conc 10, read-out: % Inhibition
  inhibition at 10 µM: 25%
HSV-1 [9]; Human alphaherpesvirus 1, intracellular, HSV-1: 1 × Cmpd (10 μM), relative viral conc 100, read-out: % Inhibition
  inhibition at 10 µM: 38%
HSV-1 [9]; HSV-1: 1 × Cmpd (10 μM), relative viral conc 10
  Plaque Forming Units Mean ± SD: 11.0 ± 1.0
HSV-1 [9]; HSV-1: 1 × Cmpd (10 μM), relative viral conc 100
  Plaque Forming Units Mean ± SD: 106.6 ± 9.3
Poliovirus-2 [10]; poliovirus-2, n=2
  intracellular antiviral activity: no antiviral activity
Poliovirus-2 [10]; read-out: % Inhibition of Plaque Forming Units, Intracellularly
  inhibition at 10 µM: 2.1%
HSV
  selectivity for HSV among the viruses tested: selective for HSV among the viruses tested
[11]; 24 h, 10.0 μmol/L
  inhibition at 24 h, 10 µM: 0%
[11]; 24 h, 50.0 μmol/L
  inhibition at 24 h, 50 µM: 5.9 ± 0.5%
[11]; 24 h, 100.0 μmol/L
  inhibition at 24 h, 100 µM: 47.8 ± 9%
[11]; 48 h, 10.0 μmol/L
  inhibition at 48 h, 10 µM: 0.4%
[11]; 48 h, 50.0 μmol/L
  inhibition at 48 h, 50 µM: 8.7 ± 2.8%
[11]; 48 h, 100.0 μmol/L
  inhibition at 48 h, 100 µM: 54.1 ± 3.2%
VSV [12]; VSV, n=2
  intracellular antiviral activity: no antiviral activity
VSV [12]; Vesicular stomatitis virus, read-out: % Inhibition of Plaque Forming Units, Intracellularly
  inhibition at 10 µM: 0%
